{"source": "patent US7011834B1", "about": "“Immunomodulating dimers” (The Board of Trustees of Leland Stanford Junior University, priority 1987, dated 2006)", "key": {"PBL from normal donors": {"test_system": "PBL from normal donors", "assay": "PBL proliferation with Conagglutinin A, 3H-thymidine incorporation", "assay_type": "cell-based, human", "conditions": "approximate, purity not established", "description": "To measure the effect of D-substitutions on proliferation, PBL from normal donors were cultured at 5×10^5 cells/round bottom microtiter well in RPMI-1640 supplemented with 10% fetal bovine serum and L-glutamine. Cultures were supplemented with Conagglutinin A. Cells were incubated at 37° C. for three days at which point ^3H-thymidine (1 μCi/well) was added. After 24 hours, wells were harvested and ^3H-thymidine incorporation determined by scintillation counter."}, "[1]": {"test_system": "CD8+CTL line specific for HLA-A2", "assay": "Cytotoxicity assay: inhibition of lysis by established CTL, 51Cr-labeled JY targets", "assay_type": "cell-based, human", "conditions": "cell ratio 10:1, CTL line AJY"}, "purified T cells": {"test_system": "purified T cells", "assay": "Proliferation assay: purified T cells stimulated by immobilized anti-CD3, 3H-thymidine incorporation", "assay_type": "cell-based, human", "description": "Cells and Cell Culture. PBL were isolated from normal donors by centrifugation over Ficoll-Hypaque. In some cases, T cells were purified from this preparation using the method of Secrist et al. [J. Exp. Med. (1993) 178:2123]. Briefly, cells isolated over Ficoll-Hypaque were incubated for 1 hour in Petri dishes. Nonadherent cells were passed over a nylon wool column and the resulting population was >90% CD3+ by FACS analysis. CD8+CTL lines specific for HLA-A2, B7, B27, B48, or Cw4 were generated and maintained in long-term culture as previously described [Buxton et al., J. Exp. Med. (1992) 175:809; Wesley et al., Hum. Immunol. (1993) 36:149]. Jurkat E6-1 and the T cell receptor negative Jurkat, JRT3-T3.5, were obtained from the American Type Culture Collection (ATCC; Rockville, Md.). Other cell lines used included the EBV transformed B cell lines JY, MS, C1R, and 721.221; K562 and HEL, erythroleukemia cell lines; the T cell tumors Peer, Hut-78 and HSB; the Burkitt's lymphoma cell lines Daudi and SUP B17 [Wright et al., J. Exp. Med. (1989) 169:1557], and the NK-like cell line YT2C2. […]\nProliferation Assay. […] Plates were harvested on a PHD Cell Harvester 24 hours later and [^3H]-thymidine incorporation determined by scintillation counting.\nPeptides were evaluated for effects on the proliferation of purified T cells stimulated by immobilized anti-CD3 antibody. […]"}, "rat splenocytes": {"test_system": "rat splenocytes", "assay": "Differentiation of rat splenocytes into allospecific CTL in vitro", "assay_type": "cell-based", "conditions": "initial studies", "description": "Therefore, we tested whether splenocytes obtained from rats treated with the peptides in vivo could differentiate into CTL ex vivo. In preliminary studies, the half-life of the B7.75-84 peptide was determined to be 2–3 hours in rats."}, "cardiac allograft": {"test_system": "cardiac allograft", "assay": "Heterotopic cardiac allograft survival, Lew donor to ACI recipient", "assay_type": "in vivo, rat", "conditions": "peptide in two weeks before or 4 days after surgery plus CsA on days 0–4", "excerpt": "Vascularized cardiac allografts were heterotypically transplanted into the abdomen of recipient rats using a modification of the technique of Ono and Lindsay (Ono and Lindsey J. Thorac. Cardiovasc. Surg. (1969) 57:225). Abdominal allografts were palpated on a daily basis to assess graft function, and rejection was deemed complete when palpable ventricular contractions ceased.\nCyclosporin A (CsA, Sandoz Pharmaceuticals Corporation, Base, Switzerland) dissolved in olive oil was given orally through a gavage tube at the indicated dose. Peptides were dissolved in water or saline and given intravenously or by gavage as indicated.\nSince the B7.75-84 and B2702.75-84 peptides blocked cellular immunity in vivo, we examined their effects on allograft survival in rats. ACI (RT1^a) recipients were given abdominal heterotopic heart allografts from Lew donors (Moeller et al. 1993, supra; Ono and Lindsey. 1969, supra). Graft function was monitored by daily abdominal palpation, and rejection was scored as complete when the palpable ventricular contractions ceased."}, "[2]": {"test_system": "Lew specific CTL precursors in splenocytes", "assay": "Limiting dilution assay for CTL precursors in splenocytes after in vivo peptide", "parameters": "species or system rat", "conditions": "for [CTL precursor frequency]^−1: PVG rats, single iv 2 mg, Lew stimulators", "description": "The effect of peptides on CTL precursor frequencies in splenocytes was tested as follows. Limiting dilution analysis was carried out essentially as described (Moeller et al. 1993, supra; Skinner and Marbrook. J. Exp. Med. (1976) 143:1562). Briefly, spleens were removed from naive animals or from animals that had received an allograft a minimum of 60 days earlier and then teased into a single cell suspension. Responder cells were plated from 1000 to 40,000 cells per well (24 replicates per concentration) into round bottom microliter wells in RPMI 1640 supplemented with 10% fetal bovine serum (Hyclone, Logan, Utah), 2 mM L-glutamine, 5×10^−5M β-mercaptoethanol, 100 U/ml penicillin, 100 μg/ml streptomycin, 20% supernatant from Concanavalin A activated rat spleen cells, and 50 μM α-methyl mannoside. Then, 5×10^5 irradiated (2000 rads) stimulator cells were added to each well and plates were incubated in a humidified CO2 incubator. After 5 days, aliquots were removed and tested for lysis of ^51Cr-labeled Concanavalin A activated blasts. Aliquots of supernatant were counted in a gamma counter and CTL precursor frequency determined by linear regression (Skinner and Marbrook. 1976, supra). Wells were considered positive if specific release was >10%.\nPVG (RT1^c) or ACI […] rats were treated with a single intravenous injection of saline or 2 mg of A2.75-84, B7.75-84, B2702.75-84, or RT1^a.75-84 peptide. Their spleens were removed on different days after peptide treatment, cultured under limiting dilution conditions for 5 days with irradiated (2000R) splenocytes from Lewis rats; i.e., Lew (RT1^1) stimulator cells, and assayed for lysis of ^51Cr-labeled Lew blasts. CTL precursor frequency was determined by linear regression analysis."}}, "data": [{"sequence": "RENLRIALRY [B2702.75–84]", "values": [{"measurement": "CPM ± SD (3H-thymidine incorporation)", "setting": "PBL from normal donors; peptide 50 μg/ml, Con A 1 mg/ml", "value": "5,806 ± 721 CPM"}, {"measurement": "CPM ± SD (3H-thymidine incorporation)", "setting": "PBL from normal donors; peptide 50 μg/ml, Con A 3 mg/ml", "value": "32,618 ± 1582 CPM"}, {"measurement": "CPM ± SD (3H-thymidine incorporation)", "setting": "PBL from normal donors; peptide 200 μg/ml, Con A 1 mg/ml", "value": "2,322 ± 147 CPM"}, {"measurement": "CPM ± SD (3H-thymidine incorporation)", "setting": "PBL from normal donors; peptide 200 μg/ml, Con A 3 mg/ml", "value": "20,905 ± 2047 CPM"}, {"measurement": "% Specific Lysis", "setting": "[1]; peptide 25 μg/ml", "value": 60.9, "unit": "%"}, {"measurement": "% Specific Lysis", "setting": "[1]; peptide 100 μg/ml", "value": 43.7, "unit": "%"}, {"measurement": "% Specific Lysis", "setting": "[1]; peptide 200 μg/ml", "value": 33.1, "unit": "%"}, {"measurement": "inhibition of proliferation of purified T cells stimulated by immobilized anti-CD3 antibody", "setting": "purified T cells", "value": "do not"}, {"measurement": "blocking of differentiation of rat splenocytes into allospecific CTL in vitro", "setting": "rat splenocytes", "value": "blocked the differentiation"}, {"measurement": "rejection of transplants with peptide plus CsA", "setting": "cardiac allograft", "value": "rejected similarly to allografts in animals treated with CsA alone"}, {"measurement": "[CTL precursor frequency]^−1", "setting": "[2]; 0 days after peptide injection", "value": "54,631"}, {"measurement": "[CTL precursor frequency]^−1", "setting": "[2]; 1 day after peptide injection", "value": "54,631"}, {"measurement": "[CTL precursor frequency]^−1", "setting": "[2]; 7 days after peptide injection", "value": "465,572"}, {"measurement": "[CTL precursor frequency]^−1", "setting": "[2]; 10 days after peptide injection", "value": "468,071"}, {"measurement": "precursor frequency of Lew specific cells in splenocytes", "setting": "[2]; treated on the day of splenectomy or 24 hours earlier, compared with approximately 1 in 55,000", "value": "The same frequency"}]}]}
